Consider four molecules from US8580753B2, “Modulation of telomere length in telomerase positive cells and cancer therapy” (ALT Solutions Inc., priority 2005, dated 2013).

“Also recorded” adds a separate entry of the source. Like-named read-outs stand apart in the source and are kept apart here.

The subject of data set [1] is HeLa cell line. Description: Telomere length by flow cytometry with telomere-specific PNA probe. Type of data set: cell-based, human. The procedure: (§1) Telomere length in GCV and ACV treated and untreated cell lines was measured by flow cytometry with a telomere-specific peptide nucleic acid (PNA) probe^23,24. To determine cell cycle distribution, cells were stained with propidium iodide (PI)^23.
(§2) The origin of the cell lines are uterine cervix (HeLa) and epithelial ovarian (NuTu-19). Cells were cultured in D-MEM media supplemented with 10% fetal calf serum at 37° C. in a humidified atmosphere of 5% CO2. For treatment of the cells with GCV, the media was supplemented with 1.5 µM of GCV (Cymevene, Hoffman-La Roche). For treatment of the cells with ACV, the media was supplemented with 3 µM of Aciclovir (Aciclovir, TEVA Pharm. Ind. Ltd, Israel).
(§3) For telomere length measurement by flow cytometry, cells were stained with telomere specific FITC conjugated (C3TA2)3 PNA (Applied Biosystems) probe and contrastained with 0.06 µg/ml PI as described by Rufer, N., Dragowska, W., Thornbury G., Roosnek, B., Lansdorp P. M. Telomere length dynamics in human lymphocyte subpopulations […]. Nat. Biotechnol. 16, 743-747 (1998)).
(In flow cytometry, cells or beads pass a laser one at a time.)

Data set [2] has as its system NuTu-19 cell line. The data set is described as above. Format: cell-based. Conditions: for telomere length: NuTu-19, GCV 1.5 μM or ACV 3.0 μM, 14 days. The procedure:
as §1, §2, §3

In data set [3] the test system is HeLa cell line. Briefly: Cell cycle distribution and apoptosis by propidium iodide staining and flow cytometry. Format: cell-based, human. The procedure:
as §1
(§4) It is important to note that changes were rapid and could be detected after only 14 days of ACV treatment. In contrast, the nucleoside analog, AZT had no effect on telomere length or cell cycle distribution in telomerase positive cells, HeLa and NuTu-19, even at elevated concentrations e.g., 100 µM (data not shown).
as §2, §3

The test system of data set [4] is NuTu-19 cell line. The description is as above. Type of data set: cell-based. The procedure: as §1, §4, §2, §3
Data set [5] concerns telomerase positive cell lines. Briefly: DNA content by PI staining at later stages of treatment. Format: cell-based. Conditions: compared to untreated cells, cell line not specified. The procedure:
A rational explanation of this fact is a short telomere induced chromosome end-to-end joining^25.
as §2, §3

A further data set has as its system NuTu-19 cells. Description: Exemplary in vivo assay: pre-established NuTu-19 tumors in Fischer rats. To be noted: for tumor growth: in drinking water ad libitum, administered 21-28 days to tumor bearing rats. The procedure: In another embodiment, the reagents and methods of the invention can be used to promote tumor regression in vivo in immunocompetent animals carrying pre-established tumors; i.e., the reagents of the invention can be used to treat animals with pre-existing tumors. In this case, the cancerous 10^6 NuTu-19 cells are injected subcutaneously in the flank of the Fischer rats to establish tumors.

The test system of data set [6] is telomerase positive cell lines. Conditions: prolonged exposure, cited from earlier work.
The conditions of data set [7]: single oral dose of 300 mg; cited from earlier work.
A further data set relates to mammalian cells. To be noted: short-time exposure, 5 μM, in vitro and in vivo; cited from earlier work.
Another data set deals with HeLa cells. Description: Nude mice injected s.c. with HeLa cells, Valcyte in drinking water. Format: in vivo. The procedure: Human cancer HeLa cell culture was purchased from ATCC. In all, 12 CD1/-nu and 12 NMRiJI-nu nude mice were purchased from Charles River Laboratories, Charles River Deutschland GmbH. These nude mice were injected s.c. with […] HeLa cells. Experimental group received valganciclovir in drinking water from day 0. Specifically, mice in the experimental groups (6 mice per strain) were exposed to Valcyte (val-ganciclovir) in drinking water (1 mg/ml) from day 0. […] In about 14 days, all mice were bearing the tumors.

Setting [8] is: GCV 1.5 μM or ACV 3.0 μM, 14 days.
Setting [9] is: NuTu-19, GCV 1.5 μM or ACV 3.0 μM, 14 days.
[10] abbreviates: even at elevated concentrations e.g. 100 μM (data not shown).
The mark [11] stands for this setting: NuTu-19, even at elevated concentrations e.g. 100 μM (data not shown).

As for `Nc1nc2c(ncn2COCCO)c(=O)[nH]1` [ACV, 9-[2(hydromethoxy)-methyl] guanine], the telomere length result is on record as “telomere shortening” in the data set with HeLa cell line [1] (setting [8]) and “decrease in telomere length; also recorded: telomere shortening” with NuTu-19 cell line [2]. Moreover, the apoptosis result in the data set on HeLa cell line [3] (setting [8]) and in the data set on NuTu-19 cell line [4] (setting [9]) was “massive apoptosis” throughout. The cell cycle distribution entry is “G2 arrest” in the data set with HeLa cell line [3] (setting [8]) and “changes in cell cycle; also recorded: G2 arrest” in the data set on NuTu-19 cell line [4] (setting [9]). Besides, in data set [5], the “DNA content (PI staining)” value is recorded as “higher DNA content”. The tumor growth result in the data set with NuTu-19 cells is on record as “retarded tumor growth”.

In the case of `Cc1cn([C@H]2C[C@H](N=[N+]=[N-])[C@@H](CO)O2)c(=O)[nH]c1=O` [AZT, 3′-azido-2′,3′-dideoxythymidine], the “effect on telomere length” value with HeLa cell line [1] (setting [10]) and with NuTu-19 cell line [2] (setting [11]) was “no effect” each time. For the same molecule, the “effect on cell cycle distribution” value in the data set on HeLa cell line [3] (setting [10]) and in the data set with NuTu-19 cell line [4] (setting [11]) was “no effect” in each case. Besides, the telomere shortening entry in [6] (100 μM (Murakami et al. 1999)) and in data set [6] (800 μM (Gomez et al. 1998; Tejera et al. 2001)) was “failed to induce any significant telomere shortening” each time. Further, in data set [7], the peak serum concentration entry was “less than 10 μM”. In data set [7], the time of absorption was at most 0.5 h. In addition, the “toxic effects on mammalian cells” value with mammalian cells is “induces undesirable toxic effects”.

On to `Nc1nc(O)c2ncn(COC(CO)CO)c2n1` [GCV, ganciclovir], for which the telomere length entry was “decrease in telomere length” in the data set on HeLa cell line [1] (1.5 μM GCV, 10 days, vs untreated cells (FIG. 1)); “telomere shortening” in the data set on HeLa cell line [1] (setting [8]); “telomere shortening” in the data set on NuTu-19 cell line [2]. Also, the apoptosis result with HeLa cell line [3] (1.5 μM GCV, 10 days (FIG. 1)) was “massive apoptosis”; in the data set with HeLa cell line [3] (setting [8]), “massive apoptosis”; with NuTu-19 cell line [4] (setting [9]), “massive apoptosis”. Besides, the cell cycle distribution entry in the data set with HeLa cell line [3] (1.5 μM GCV, 10 days (FIG. 1, FIG. 3)) was “changes in the cell cycle distribution”; in the data set on HeLa cell line [3] (setting [8]), “G2 arrest”; in the data set on NuTu-19 cell line [4] (NuTu-19, 1.5 μM GCV, 10 days (FIG. 3)), “changes in the cell cycle distribution”; with NuTu-19 cell line [4] (setting [9]), “G2 arrest”. In data set [5], the “DNA content (PI staining)” value is on record as “higher DNA content”. This molecule also showed a survival in the data set with NuTu-19 cells (few weeks after the start of the treatment) of 100%. Moreover, the tumor growth result in the data set with NuTu-19 cells is “retarded tumor growth”.

With `CC(C)[C@H](N)C(=O)OCC(CO)OCn1cnc2c(=O)nc(N)[nH]c21` (stereo partly drawn) [Valcyte, valganciclovir], the tumor development result in the data set on HeLa cells (1 mg/ml in drinking water from day 0, all mice bearing tumors in about 14 days) is “All mice in control and treated groups had developed tumors”. The tumor regression result with HeLa cells (one mouse from the treated group, by about the 30th day, monotherapy, 1 mg/ml in drinking water) was “this tumor was eliminated”. Moreover, the tumor growth result in the data set on HeLa cells (other mice in the treated groups, 1 mg/ml in drinking water) was “slowing of tumor growth (stabilization)”.
